From publication PMC6115404 (2018)

What was measured:
[1] = test system: wtTel26 (DNA, G4) TTAGGGTTAGGGTTAGGGTTAGGGTT; test: 1H NMR titration; conditions: K+ (25 mM K-phosphate, 70 mM KCl); no well-defined complex at higher equivalents
[2] = test system: F10T (for FRET), double-stranded DNA (DNA, hairpin, hexaethylene glycol (HEG) linker between nucleotides 10 and 11) TATAGCTATATATAGCTATA; test: FRET melting; conditions: K+ (60 mM potassium cacodylate); pH 7.4; 400 nM DNA; compound concentration not in text
[3] = test system: Tel26 (for FRET) (DNA, G4) AAAGGGTTAGGGTTAGGGTTAGGGAA; test: FRET melting; conditions: K+ (60 mM potassium cacodylate); pH 7.4; 400 nM DNA, 1.0 equivalent compound; second Tm (ΔTm 41.5, dimeric complex) at 2-3 equivalents
[4] = test system: Tel26 (DNA, G4) AAAGGGTTAGGGTTAGGGTTAGGGAA; test: NMR solution structure; conditions: K+ (25 mM K-phosphate, 70 mM KCl); pH 7.0, 25 °C; bound at 5'-end, slow exchange

With `NCCNCCN.NCCNCCN.NCCNCCN.[Pt+2].[Pt+2].[Pt+2].c1cc(-c2ccc(N(c3ccc(-c4ccncc4)cc3)c3ccc(-c4ccncc4)cc3)cc2)ccn1` the binding [1] was “yes”, the ΔTm [2] was 2.5 °C and the ΔTm [3] was 8.4 °C. For the same compound, the binding [4] was “yes”.
